Each molecule was assayed on Human RSV-A (“Long” strain) (assay: RSV-A assay: inhibition of cytopathic effect in Hep-2 cells, ATPlite readout). Conditions: human respiratory syncytial virus, HEp-2, 120 h, read-out: Human RSV-A (“Long” strain) EC50.
Format: cell-based, Human respiratory syncytial virus (HRSV)
From the text: Hep-2 cells, (originally derived from tumors grown in irradiated-cortisonised weanling rats that had been injected with epidermoid carcinoma tissue from a person's larynx, but later found to be indistinguishable from HeLa cells by PCR DNA analysis), were used for the culturing of genotype A, “Long” strain RSV. Flasks were inoculated with RSV and viral stocks were collected once cytopathic effect (CPE) was greater than 90%. Viral stocks in 25% sucrose media were snap frozen using liquid nitrogen to increase viral stability. Viral stock titers were quantified by tissue culture infectious dose 50% (TCID50) using 8,000 cells per well and 3-fold viral dilutions across a 96-well plate, cultured for 4 days. Viral stock titers were also quantified by a plaque forming unit assay, as described elsewhere.
Following extensive parameter testing, the final assay is run as follows: Hep-2 cells are seeded into the inner 60 wells of a 96-well plate at 8,000 cells per well in a volume of 50 μL using Growth Media (DMEM without phenol red, 1% L-Glut, 1% Penn/Strep, 1% nonessential amino acids, 10% heat-inactivated FBS). 2-fold serial dilutions of control and test compounds are added to the wells in duplicate in a total volume of 25 μL. Viral stock is then added to the wells at a multiplicity of infection (MOI) of 0.1 in a volume of 25 μL, bringing the total volume of each well to 100 μL. The MOI is calculated using the PFU/mL, or TCID50 if unavailable. Each 96-well plate has a control column of 6 wells with cells and virus but no compound (negative control, max CPE), a column with cells but no compound or virus (positive control, minimum CPE), and a column with no cells or virus or compound (background plate/reagent control). The control wells with cells but no virus are given an additional 25 uL of growth media containing an equal quantity of sucrose as those wells receiving the viral stock in order to keep consistent in media and volume conditions. The outer wells of the plate are filled with 125 μL of moat media (DMEM, 1% Penn/Strep) to act as a thermal and evaporative moat around the test wells. Following a 5-day incubation period, the plates are read using ATPlite (50 uL added per well), which quantifies the amount of ATP (a measure of cell health) present in each well. Assay plates are read using the Envision luminometer. In parallel, cytotoxicity is examined on an additional 96-well plate treated in an identical manner, but substituting the 25 μL of viral stock for 25 μL of growth media. […] EC50 ranges are as follows: A<0.4 μM; B 0.4-0.8 μM; C>0.8 μM and CC50 ranges are as follows: A>50 μM; B 10-50 μM; C<10 μM.

Row | SMILES | EC50 [nM]
1 | O=C1Nc2ccccc2C(c2ccccc2)=NC1Nc1nnc(-c2ccc(-n3ccnc3)nc2)o1 (centres unmarked) [Example 232] | > 800
2 | O=C1Nc2ccccc2C(c2ccccc2)=NC1Nc1nnc(-c2ccc(-n3cnnc3)cc2)o1 (centres unmarked) [Example 233] | > 800
3 | CN(C)CCOc1ccccc1-c1nnc(NC2N=C(c3ccccc3)c3ccccc3NC2=O)o1 (centres unmarked) [Example 234] | > 800
4 | O=C1Nc2ccccc2C(c2ccccc2)=NC1Nc1nnc(-c2ccccc2NCc2ccccn2)o1 (centres unmarked) [Example 235] | > 800
5 | COCCOc1ccc(-c2nnc(NC3N=C(c4ccccc4)c4ccccc4NC3=O)o2)cc1 (centres unmarked) [Example 236] | > 800
6 | CN1CCN(c2ncccc2-c2nnc(NC3N=C(c4ccccc4)c4ccccc4NC3=O)o2)CC1 (centres unmarked) [Example 237] | > 800
7 | CN[C@H](c1ccccc1)c1nnc(NC2N=C(c3ccccc3)c3ccccc3NC2=O)o1 (some centres unmarked) [Example 238] | > 800
8 | O=C1Nc2ccccc2C(c2ccccc2)=NC1Nc1nnc(-c2ccccc2OC2CCOCC2)o1 (centres unmarked) [Example 239] | > 800
9 | O=C1Nc2ccccc2C(c2ccccc2)=NC1Nc1nnc(-c2ccccc2N2CCS(=O)(=O)CC2)o1 (centres unmarked) [Example 240] | > 800
10 | O=C1Nc2ccccc2C(c2ccccc2)=NC1Nc1nnc(-c2cccnc2N2CCCCC2)o1 (centres unmarked) [Example 241] | > 800
11 | C[C@@H]1CN(c2ccc(-c3nnc(N[C@H]4N=C(c5ccccc5)c5ccccc5NC4=O)o3)c(Cl)c2)C[C@H](C)O1 [Example 243] | > 800
12 | O=C1Nc2ccccc2C(c2ccccc2)=N[C@@H]1Nc1nnc(-c2ccc(N3C4CCC3COC4)cc2Cl)o1 [Example 244] | > 800
13 | O=C1Nc2ccccc2C(c2ccccc2)=NC1Nc1nnc(-c2cccnc2N2CCCC(F)(F)C2)o1 (centres unmarked) [Example 246] | > 800
14 | CO[C@H]1CCN(c2ncccc2-c2nnc(NC3N=C(c4ccccc4)c4ccccc4NC3=O)o2)C1 (some centres unmarked) [Example 247] | > 800
15 | O=C1Nc2ccccc2C(c2ccccc2)=NC1Nc1nnc(-c2cccnc2N2C[C@@H]3C[C@H]2CO3)o1 (some centres unmarked) [Example 248] | > 800
16 | COC1CCN(c2ncccc2-c2nnc(NC3N=C(c4ccccc4)c4ccccc4NC3=O)o2)CC1 (centres unmarked) [Example 254] | > 800
17 | O=C1Nc2ccccc2C(c2ccccc2)=NC1Nc1nnc(-c2cccnc2N2CCC(O)CC2)o1 (centres unmarked) [Example 255] | > 800
18 | O=C1Nc2ccccc2C(c2ccccc2)=NC1Nc1nnc(-c2cccnc2N2CCC(F)CC2)o1 (centres unmarked) [Example 256] | > 800
19 | COC1CN(c2ncccc2-c2nnc(NC3N=C(c4ccccc4)c4ccccc4NC3=O)o2)C1 (centres unmarked) [Example 258] | > 800
20 | O=C1Nc2ccccc2C(c2ccccc2)=NC1Nc1nnc(-c2cccnc2N2CC(F)(F)C2)o1 (centres unmarked) [Example 259] | > 800

Row | SMILES | EC50 [nM]
21 | N#CC1CCN(c2ncccc2-c2nnc(NC3N=C(c4ccccc4)c4ccccc4NC3=O)o2)CC1 (centres unmarked) [Example 260] | > 800
22 | C[C@H]1COCCN1c1ncccc1-c1nnc(NC2N=C(c3ccccc3)c3ccccc3NC2=O)o1 (some centres unmarked) [Example 261] | > 800
23 | C[C@@H]1CN(c2ncccc2-c2nnc(NC3N=C(c4ccccc4)c4ccccc4NC3=O)o2)CCO1 (some centres unmarked) [Example 262] | > 800
24 | O=C1Nc2ccccc2C(c2ccccc2)=NC1Nc1nnc(-c2cccnc2N2C[C@H]3C[C@@H]2CO3)o1 (some centres unmarked) [Example 264] | > 800
25 | O=C1Nc2ccccc2C(c2ccccc2)=NC1Nc1nnc(-c2cccnc2N2C3CCC2COC3)o1 (centres unmarked) [Example 265] | > 800
26 | O=C1Nc2ccccc2C(c2ccccc2)=NC1Nc1nnc(-c2cccnc2N2CC3CCC(C2)O3)o1 (centres unmarked) [Example 266] | 400 to 800
27 | O=C1Nc2ccccc2C(c2ccccc2)=NC1Nc1nnc(-c2cccnc2N2C[C@H]3COC[C@H]3C2)o1 (some centres unmarked) [Example 267] | > 800
28 | O=C1Nc2ccccc2C(c2ccccc2)=N[C@@H]1Nc1nnc(-c2cccnc2N2CCn3ncnc3C2)o1 [Example 270] | > 800
29 | COC1CN(c2cc(C(F)(F)F)cnc2-c2nnc(N[C@H]3N=C(c4ccccc4)c4ccccc4NC3=O)o2)C1 [Example 271] | > 800
30 | O=C1Nc2ccccc2C(c2ccccc2)=NC1Nc1nnc(-c2ccc(-n3cncn3)cc2)o1 (centres unmarked) [Example 273] | 400 to 800
31 | N#CC1CN(c2ncccc2-c2nnc(NC3N=C(c4ccccc4)c4ccccc4NC3=O)o2)C1 (centres unmarked) [Example 274] | > 800
32 | O=C1Nc2ccccc2C(c2ccccc2)=N[C@@H]1Nc1nnc(-c2ccc(C(F)(F)F)nc2N2C3CCC2COC3)o1 [Example 275] | > 800
33 | Cc1ccc(-c2nnc(N[C@H]3N=C(c4ccccc4)c4ccccc4NC3=O)o2)c(N2CC3CCC(C2)O3)n1 [Example 279] | < 400
34 | Cc1ccc(-c2nnc(N[C@H]3N=C(c4ccccc4)c4ccccc4NC3=O)o2)c(N2C3CCC2COC3)n1 [Example 280] | < 400
35 | N#Cc1ccc(-c2nnc(N[C@H]3N=C(c4ccccc4)c4ccccc4NC3=O)o2)c(N2CC3CCC(C2)O3)c1 [Example 281] | < 400
36 | O=C1Nc2ccccc2C(c2ccccc2)=N[C@@H]1Nc1nnc(-c2ncc(C(F)(F)F)cc2-c2ccncc2)o1 [Example 282] | > 800
37 | O=C1Nc2ccccc2C(c2ccccc2)=NC1Nc1nnc(-c2ccccc2-n2cccn2)o1 (centres unmarked) [Example 283] | > 800
38 | C[C@@H]1CN(c2cc(F)ccc2-c2nnc(N[C@H]3N=C(c4ccccc4)c4ccccc4NC3=O)o2)C[C@H](C)O1 [Example 284] | > 800
39 | C[C@@H]1COCCN1c1cc(C#N)ccc1-c1nnc(N[C@H]2N=C(c3ccccc3)c3ccccc3NC2=O)o1 [Example 285] | < 400
40 | Cc1ccc(-c2nnc(N[C@H]3N=C(c4ccccc4)c4ccccc4NC3=O)o2)c(N2CCOC[C@H]2C)n1 [Example 286] | < 400

Row | SMILES | EC50 [nM]
41 | O=C1Nc2ccccc2C(c2ccccc2)=NC1Nc1nnc(C23CCN(CC2)CC3)o1 (centres unmarked) [Example 287] | > 800
42 | O=C1Nc2ccccc2C(c2ccccc2)=N[C@@H]1Nc1nnc(-c2ccc(F)cc2N2CC3CCC(C2)O3)o1 [Example 288] | 400 to 800
43 | N#Cc1ccc(-c2nnc(N[C@H]3N=C(c4ccccc4)c4ccccc4NC3=O)o2)c(N2C3CCC2COC3)c1 [Example 289] | < 400
44 | O=C1Nc2ccccc2C(c2ccccc2)=N[C@@H]1Nc1nnc(-c2cnc(C(F)(F)F)nc2N2CC3CCC(C2)O3)o1 [Example 290] | > 800
45 | N#Cc1c[nH]c2cc(-c3nnc(N[C@H]4N=C(c5ccccc5)c5ccccc5NC4=O)o3)ccc12 [Example 291] | > 800
46 | O=C1Nc2ccccc2C(c2ccccc2)=N[C@@H]1Nc1nnc(-c2nnsc2N2CCOCC2)o1 [Example 292] | < 400
47 | O=C1Nc2ccccc2C(c2ccccc2)=N[C@@H]1Nc1nnc(-c2ncc(C(F)(F)F)cc2C2CC2)o1 [Example 293] | > 800
48 | C[C@@H]1COCCN1c1cc(C(F)(F)F)cnc1-c1nnc(N[C@H]2N=C(c3ccccc3)c3ccccc3NC2=O)o1 [Example 294] | < 400
49 | COc1ccc(-c2nnc(N[C@H]3N=C(c4ccccc4)c4ccccc4NC3=O)o2)c(N2CCOCC2)n1 [Example 295] | < 400
50 | CN1CCN(c2cc(C(F)(F)F)cnc2-c2nnc(N[C@H]3N=C(c4ccccc4)c4ccccc4NC3=O)o2)CC1=O [Example 296] | > 800
51 | CC(C)(O)CNc1cc(C(F)(F)F)cnc1-c1nnc(N[C@H]2N=C(c3ccccc3)c3ccccc3NC2=O)o1 [Example 297] | < 400
52 | COCCn1c(-c2nnc(N[C@H]3N=C(c4ccccc4)c4ccccc4NC3=O)o2)nc2ccccc21 [Example 298] | > 800
53 | O=C1Nc2ccccc2C(c2ccccc2)=N[C@@H]1Nc1nnc(-c2ncc(F)cc2N2CC3CCC(C2)O3)o1 [Example 299] | < 400
54 | C[C@@H]1COCCN1c1cc(C#N)cnc1-c1nnc(N[C@H]2N=C(c3ccccc3)c3ccccc3NC2=O)o1 [Example 301] | < 400
55 | CN(C)c1cc(C(F)(F)F)cnc1-c1nnc(N[C@H]2N=C(c3ccccc3)c3ccccc3NC2=O)o1 [Example 302] | > 800
56 | COCCNc1cc(C(F)(F)F)cnc1-c1nnc(N[C@H]2N=C(c3ccccc3)c3ccccc3NC2=O)o1 [Example 305] | < 400
57 | COCCn1ccnc1-c1nnc(N[C@H]2N=C(c3ccccc3)c3ccccc3NC2=O)o1 [Example 306] | > 800
58 | CNc1cc(C(F)(F)F)cnc1-c1nnc(N[C@H]2N=C(c3ccccc3)c3ccccc3NC2=O)o1 [Example 307] | > 800
59 | CN(CC(C)(C)O)c1cc(C(F)(F)F)cnc1-c1nnc(N[C@H]2N=C(c3ccccc3)c3ccccc3NC2=O)o1 [Example 308] | > 800

— US11390631B1, “Benzodiazepine derivatives as RSV inhibitors” (priority 2015, dated 2022)
